Results: patent US10342837B2, “Extracts and compositions of helichrysum odoratissimum for preventing and treating skin cancers” (University of Pretoria, priority 2013, dated 2019)
In brackets after ≈: the same amount, converted by molar mass. Numbered stars: 1 amine (or outer) side, 2 acyl side, 3 side chain; on linkers, the order of the positions; unused ones are H or OH. Bridge positions count the residues as written; N and C are the ends. Square brackets hold non-standard residues; d marks the D form. Peptide text beside a SMILES is read from it. I, II: the chains in the order shown. Actinocin(9to1) = Cc1c2oc3c(C)ccc(C(=O)[*:1])c3nc-2c(C(=O)[*:2])c(N)c1=O; NMeV = CN[C@H](C(=O)O)C(C)C; Sar = CNCC(=O)O

What was measured:
Format in all cases: cell-based
[1] = tested on: A431 cells; assay: Light microscopy, haematoxylin and eosin staining of A431 cells (apoptosis); details: 0.025 μg/ml, 72 h exposure
Experimental: The specific concentrations of extract were chosen due to the anti-proliferative activity that was observed. Exponentially growing cells were seeded at 100,000 cell per well in 6-well plates on heat-sterilized coverslips. After 24 h incubation at 37° C. and 5% […] for cell adherence, cells were exposed to 15 μg/ml, 30 μg/ml and 7.5 μg/ml of H. odoratissimum extract including vehicle-treated control cells (2% DMSO); cells propagate in growth medium, as well as 0.025 μg/ml Actinomycin D and incubated for 72 h at 37° C. Cells were then fixed in Bouin's fixative for 30 min and stained by standard haematoxylin and eosin staining procedures (Stander et al. 2009).
The influence of H. odoratissimum was compared to a medium control, vehicle-treated control and Actinomycin D (FIG. 3).

[2] = Cytotoxicity on U937 cells; details: human
Excerpt: (§1) The cytotoxicity of the H. odoratissimum extract was first analyzed on the U937 cells to determine IC50 values at which the extract could be tested when evaluating the cytokine profile and to ensure that the concentrations of phytohemagglutinin (PHA) and pentoxifylline, used to determine the cytokine profile, was not toxic to the U937 cells.

[3] = Cell viability of U937 cells in cytokine production test; details: human
Experimental: (§2) The levels of cytokine production (IL-8 and IL-12) from cell supernatants were measured by enzyme-linked immunosorbent assay (ELISA) according to the manufacturer's protocol (BD Biosciences, San Diego, Calif., USA). The levels of IL-12 were determined as it was reported to act as a potential anti-tumour agent (Brunda et al. 1993). IL-8 was measured as it plays a major role in the progression of various cancer cells by invasion, migration, adhesion, proliferation (Kuai et al. 2012). Briefly U937 cells were plated at a concentration of 2.5×10^5 cell per well in a 24-well plate. The cells were incubated for 24 h with 0.1 μg/ml PMA at 37° C. and 5% CO2 to allow the monocytes to differentiate into macrophages. The cells were treated with various concentrations of H. odoratissimum extracts. Controls included 20 μg/ml pentoxifylline, 5 μg/ml phytohemagglutinin (PHA), as well as vehicle-treated control cells (1% DMSO) and a medium only control. […]
(§3) H. odoratissimum was analyzed at 20 μg/ml, 15 μg/ml, 10 μg/ml and 5 μg/ml to determine whether the extract was able to induce the production of IL-12 and inhibit the production of IL-8 in phytohemagglutinin (PHA) stimulated U937 cells, the results of which are depicted in Table 2.

[4] = tested on: IL-8; assay: IL-8 production in U937 cells (ELISA)
Experimental: as §2, §3

[5] = tested on: IL-12; assay: IL-12 production in U937 cells (ELISA); details: for production of IL-12 of the controls compared to the medium control (in words): PHA at 5 μg/ml, pentoxifylline at 20 μg/ml
Experimental: The levels of cytokine production (IL-8 and IL-12) from cell supernatants were measured by enzyme-linked immunosorbent assay (ELISA) according to the manufacturer's protocol (BD Biosciences, San Diego, Calif., USA). The levels of IL-12 were determined as it was reported to act as a potential anti-tumour agent (Brunda et al. 1993). IL-8 was measured as it plays a major role in the progression of various cancer cells by invasion, migration, adhesion, proliferation (Kuai et al. 2012). Briefly U937 cells were plated at a concentration of 2.5×10^5 cell per well in a 24-well plate. The cells were incubated for 24 h with 0.1 μg/ml PMA at 37° C. and 5% CO2 to allow the monocytes to differentiate into macrophages. The cells were treated with various concentrations of H. odoratissimum extracts. Controls included 20 μg/ml pentoxifylline, 5 μg/ml phytohemagglutinin (PHA), as well as vehicle-treated control cells (1% DMSO) and a medium only control. The cells were incubated for a further 20 hrs and thereafter centrifuged at 980 rpm for 5 min to collect the cell free supernatant and analyse the concentration of IL-8 and IL-12.
as §3

[6] = tested on: U937 cells; assay: Cytotoxicity on U937 cells; details: U937 cells
Excerpt: as §1

[7] = tested on: U937 cells; assay: Cell viability of U937 cells in cytokine production test; details: sample at 5 μg/ml; U937 cells
Experimental: as §2, §3

Row | Compound | A431 cell morphology (in words) [1] | IC50 [2] | viability at 20 h, 20 μg/ml [3] | IL-8 ([4]; sample at 20 μg/ml) | production of IL-12 of the controls compared to the medium control (in words) [5] | IL-12 ([5]; sample at 20 μg/ml) | IC50 (in μg/ml), cytotoxicity on U937 cells [6] | Cell viability in % [7] | IL-8 ([4]; sample at 5 μg/ml) | IL-12 ([5]; sample at 5 μg/ml)
1 | Cc1c2oc3c(C)ccc(C(=O)N[C@@H]4C(=O)N[C@H](C(C)C)C(=O)N5CCC[C@H]5C(=O)N(C)CC(=O)N(C)[C@@H](C(C)C)C(=O)O[C@@H]4C)c3nc-2c(C(=O)N[C@@H]2C(=O)N[C@H](C(C)C)C(=O)N3CCC[C@H]3C(=O)N(C)CC(=O)N(C)[C@@H](C(C)C)C(=O)O[C@@H]2C)c(N)c1=O [Actinomycin D] (I: T[dV]P[Sar][NMeV] / II: T[dV]P[Sar][NMeV]; ester I:1-I:C, II:1-II:C; linker I:N-II:N via Actinocin(9to1)) | a great amount of cell death and total loss of cell viability |  |  |  |  |  |  |  |  | 
2 | CC(=O)CCCCn1c(=O)c2c(ncn2C)n(C)c1=O [Pentoxifylline, pentoxifylline] |  | 170 ± 6.4 µg/mL (≈ 611 µM) | 106% | 51.2 ± 7.2 pg/mL | inhibition | 1.37 ± 0.9 pg/mL |  |  |  | 
3 | phytohemagglutinin [PHA] |  |  |  |  | increase in IL-12 |  | 318 ± 7.8 µg/mL | 101% ± 0.3 | 107 ± 5.6 pg/mL | 9.49 ± 3.8 pg/mL
